This note sets out measurements from patent publication US9533968B2, “N-thio-anthranilamide compounds and their use as pesticides” (BASF SE, priority 2012, dated 2017).

What all share (assay type): in vivo
Data set [1] concerns Silverleaf Whitefly (Bemisia argentifolii). As to the kind of experiment: Silverleaf whitefly test, sprayed cotton plants. The following applies: at 100 ppm; silverleaf whitefly adults; 3 days after treatment. The text has this: (§1) The active compounds are formulated in cyclohexanone as a 10,000 ppm solution supplied in tubes. The tubes are inserted into an automated electrostatic sprayer equipped with an atomizing nozzle and they serve as stock solutions for which lower dilutions are made in 50% acetone:50% water (v/v). A nonionic surfactant (Kinetic®) is included in the solution at a volume of 0.01% (v/v).
Cotton plants at the cotyledon stage (one plant per pot) are sprayed by an automated electrostatic plant sprayer equipped with an atomizing spray nozzle. The plants are dried in the sprayer fume hood and then removed from the sprayer. Each pot is placed into a plastic cup and about 10 to 12 whitefly adults (approximately 3-5 days old) are introduced. The insects are collected using an aspirator and a nontoxic Tygon® tubing connected to a barrier pipette tip. The tip, containing the collected insects, is then gently inserted into the soil containing the treated plant, allowing insects to crawl out of the tip to reach the foliage for feeding. Cups are covered with a reusable screened lid. Test plants are maintained in a growth room at about 25° C. and about 20-40% relative humidity for 3 days, avoiding direct exposure to fluorescent light (24 hour photoperiod) to prevent trapping of heat inside the cup. Mortality is assessed 3 days after treatment, compared to untreated control plants.

The test system of data set [2] is Orchid Thrips (Dichromothrips Corbetti). As to the kind of experiment: Orchid thrips test, floral-immersion technique. As to conditions: 96 h, read-out: mortality in comparison with untreated controls. The procedure: Dichromothrips corbetti adults used for bioassay are obtained from a colony maintained continuously under laboratory conditions. For testing purposes, the test compound is diluted to a concentration of 300 ppm (wt compound: vol diluent) in a 1:1 mixture of acetone:water (vol:vol), plus 0.01% vol/vol Kinetic® surfactant.
Thrips potency of each compound is evaluated by using a floral-immersion technique. Plastic petri dishes are used as test arenas. All petals of individual, intact orchid flowers are dipped into treatment solution and allowed to dry. Treated flowers are placed into individual petri dishes along with 10-15 adult thrips. The petri dishes are then covered with lids. All test arenas are held under continuous light and a temperature of about 28° C. for duration of the assay. After 4 days, the numbers of live thrips are counted on each flower, and along inner walls of each petri dish. The level of thrips mortality is extrapolated from pre-treatment thrips numbers.

Data set [3] relates to vetch aphid (Megoura viciae). As to the kind of experiment: Vetch aphid test, broad bean leaf disks in microtiter plates. As to conditions: foliar, 120 h, read-out: mortality in comparison with untreated controls. The procedure: For evaluating control of vetch aphid (Megoura viciae) through contact or systemic means the test unit consists of 24-well-microtiter plates containing broad bean leaf disks.
The compounds are formulated using a solution containing 75% v/v water and 25% v/v DMSO. Different concentrations of formulated compounds are sprayed onto the leaf disks at 2.5 μl, using a custom built micro atomizer, at two replications.
After application, the leaf disks are air-dried and 5-8 adult aphids placed on the leaf disks inside the microtiter plate wells. The aphids are then allowed to suck on the treated leaf disks and incubated at about 23±1° C. and about 50±5% relative humidity for 5 days. Aphid mortality and fecundity is then visually assessed.

In data set [4] the test system is Diamond Back Moth (Plutella Xylostella). As to the kind of experiment: Diamond back moth test, cabbage leaf dip. As to conditions: foliar, 72 h, read-out: mortality in comparison with untreated controls. The procedure:
The active compound is dissolved at the desired concentration in a mixture of 1:1 (vol/vol) distilled water:aceteone. Surfactant (Alkamuls® EL 620) is added at a rate of 0.1% (vol/vol). The test solution is prepared at the day of use.
Leaves of cabbage are dipped in test solution and air-dried. Treated leaves are placed in petri dishes lined with moist filter paper and inoculated with ten 3rd instar larvae. Mortality is recorded 72 hours after treatment. Feeding damages are also recorded using a scale of 0-100%.

Data set [5] concerns Tobacco Budworm (Heliothis virescens). As to the kind of experiment: Tobacco budworm test, microtiter plates with insect diet and eggs. The following applies: 120 h, read-out: mortality in comparison with untreated controls. The procedure: The test unit consisted of 96-well-microtiter plates containing an insect diet and 15-25 H. virescens eggs. The compounds were formulated using a solution containing 75% v/v water and 25% v/v DMSO. Different concentrations of formulated compounds were sprayed onto the insect diet at 10 μl, using a custom built micro atomizer, at two replications.
After application, microtiter plates were incubated at about 28±1° C. and about 80±5% relative humidity for 5 days. Egg and larval mortality was then visually assessed.

In data set [6] the test system is boll weevil (Anthonomus grandis). As to the kind of experiment: Boll weevil test, microtiter plates with insect diet and eggs. The following applies: 120 h, read-out: mortality in comparison with untreated controls. The procedure:
For evaluating control of boll weevil (Anthonomus grandis) the test unit consists of 24-well-microtiter plates containing an insect diet and 20-30 A. grandis eggs.
The compounds are formulated using a solution containing 75% v/v water and 25% v/v DMSO. Different concentrations of formulated compounds are sprayed onto the insect diet at 20 μl, using a custom built micro atomizer, at two replications.
After application, microtiter plates are incubated at about 23±1° C. and about 50±5% relative humidity for 5 days. Egg and larval mortality is then visually assessed.

Data set [7] concerns Southern Armyworm (Spodoptera eridania). As to the kind of experiment: Southern armyworm test, sprayed lima bean plants. As to conditions: 96 h, read-out: mortality in comparison with untreated controls. The procedure: as §1
Lima bean plants (variety Sieva) are grown 2 plants to a pot and selected for treatment at the 1st true leaf stage. Test solutions are sprayed onto the foliage by an automated electrostatic plant sprayer equipped with an atomizing spray nozzle. The plants are dried in the sprayer fume hood and then removed from the sprayer. Each pot is placed into perforated plastic bags with a zip closure. About 10 to 11 armyworm larvae are placed into the bag and the bags zipped closed. Test plants are maintained in a growth room at about 25° C. and about 20-40% relative humidity for 4 days, avoiding direct exposure to fluorescent light (24 hour photoperiod) to prevent trapping of heat inside the bags. Mortality and reduced feeding are assessed 4 days after treatment, compared to untreated control plants.

The subject of data set [8] is Rice Green Leafhopper (Nephotettix virescens). As to the kind of experiment: Rice green leafhopper test, sprayed rice seedlings. The following applies: 72 h, read-out: mortality in comparison with untreated controls. The procedure:
Rice seedlings are cleaned and washed 24 hours before spraying. The active compounds are formulated in 50:50 acetone:water (vol:vol), and 0.1% vol/vol surfactant (EL 620) is added. Potted rice seedlings are sprayed with 5 ml test solution, air dried, placed in cages and inoculated with 10 adults. Treated rice plants are kept at about 28-29° C. and relative humidity of about 50-60%. Percent mortality is recorded after 72 hours.

The subject of data set [9] is Colorado Potato Beetle (Leptinotarsa decemlineata). As to the kind of experiment: Colorado potato beetle test, sprayed eggplant foliage. The following applies: foliar, 96 h, read-out: mortality in comparison with untreated controls. The procedure:
as §1
Eggplants are grown 2 plants to a pot and are selected for treatment at the 1st true leaf stage. Test solutions are sprayed onto the foliage by an automated electrostatic plant sprayer equipped with an atomizing spray nozzle. The plants are dried in the sprayer fume hood and then removed from the sprayer. The treated foliage is then cut and removed from the pot and placed in a Petri dish lined with moistened filter pa-per. Five beetle larvae are introduced into each Petri dish and the dish is covered by a Petri dish lid. Petri dishes are maintained in a growth room at about 25° C. and about 20-40% relative humidity for 4 days, avoiding direct exposure to fluorescent light (24 hour photoperiod) to prevent trapping of heat inside the dishes. Mortality and reduced feeding are assessed 4 days after treatment, compared to untreated control plants.

Data set [10] relates to Mediterranean fruitfly (Ceratitis capitata). As to the kind of experiment: Mediterranean fruitfly test, microtiter plates with insect diet and eggs. As to conditions: 120 h, read-out: mortality in comparison with untreated controls. The procedure:
For evaluating control of Mediterranean fruitfly (Ceratitis capitata) the test unit consists of microtiter plates containing an insect diet and 50-80 C. capitata eggs.
The compounds are formulated using a solution containing 75% v/v water and 25% v/v DMSO. Different concentrations of formulated compounds are sprayed onto the insect diet at 5 μl, using a custom built micro atomizer, at two replications.
After application, microtiter plates are incubated at about 28±1° C. and about 80±5% relative humidity for 5 days. Egg and larval mortality is then visually assessed.

Data set [11] concerns Cowpea Aphid (Aphis Craccivora). As to the kind of experiment: Cowpea aphid test, sprayed potted cowpea plants. As to conditions: read-out: mortality in comparison with untreated controls. The procedure: If not otherwise specified the test solutions are prepared as follow:
The active compound is dissolved at the desired concentration in a mixture of 1:1 (vol:vol) distilled water:aceton. The test solution is prepared at the day of use and in general at concentrations of […].
Potted cowpea plants colonized with approximately 100-150 aphids of various stages are sprayed after the pest population has been recorded. Population reduction is assessed after 24, 72, and 120 hours.

Bounds are passed on as bounds.

For orientation: mortality means the percentage killed.

With `CC(C)[S+]([O-])NC(=O)c1cc(Br)cc(Br)c1NC(=O)c1cc(C(F)(F)F)nn1-c1ncccc1Cl` (stereo not drawn) [Compound 1-7], the “mortality in comparison with untreated controls” value in data set [1] was “over 75%”.

Take `CSNC(=O)c1cc(Cl)cc(C)c1NC(=O)c1cc(C(F)(F)F)nn1-c1ncccc1Cl` [Compound 1-22, N-[4-chloro-2-methyl-6-(methylsulfanylcarbamoyl)phenyl]-2-(3-chloro-2-pyridyl)-5-(trifluoromethyl)pyrazole-3-carboxamide]: the mortality at 500 ppm in data set [2], in data set [4] and in data set [8] was more than 75% each time. Also, the mortality at 2500 ppm in [3], in data set [5], in data set [6] and in data set [10] was more than 75% in each case. The mortality at 1 ppm in data set [7] and in [9] was more than 75% in each case.

Regarding `Cc1cc(Cl)cc(C(=O)N[S+](C)[O-])c1NC(=O)c1cc(C(F)(F)F)nn1-c1ncccc1Cl` (stereo not drawn) [Compound 1-28, N-[4-chloro-2-methyl-6-(methylsulfinylcarbamoyl)phenyl]-2-(3-chloro-2-pyridyl)-5-(trifluoromethyl)pyrazole-3-carboxamide], the mortality at 500 ppm in data set [2], in data set [4], in [11] and in [8] was more than 75% in each case. In addition, the mortality at 2500 ppm in data set [3], in data set [5], in data set [6] and in [10] was more than 75% each time.
